The Kinase Knowledgebase extract (Sharma et al. 2016)
Several values for one entry are separate records, joined by “and”; a condition that tells them apart may be missing. Equal values may be shown once.

Target: PIK3CD (Human) (UniProt O00329)
Experiment: Assessment of PIK3CD Kinase Activity

PIK3CD (Human), sequence (O00329 whole entry, looked up): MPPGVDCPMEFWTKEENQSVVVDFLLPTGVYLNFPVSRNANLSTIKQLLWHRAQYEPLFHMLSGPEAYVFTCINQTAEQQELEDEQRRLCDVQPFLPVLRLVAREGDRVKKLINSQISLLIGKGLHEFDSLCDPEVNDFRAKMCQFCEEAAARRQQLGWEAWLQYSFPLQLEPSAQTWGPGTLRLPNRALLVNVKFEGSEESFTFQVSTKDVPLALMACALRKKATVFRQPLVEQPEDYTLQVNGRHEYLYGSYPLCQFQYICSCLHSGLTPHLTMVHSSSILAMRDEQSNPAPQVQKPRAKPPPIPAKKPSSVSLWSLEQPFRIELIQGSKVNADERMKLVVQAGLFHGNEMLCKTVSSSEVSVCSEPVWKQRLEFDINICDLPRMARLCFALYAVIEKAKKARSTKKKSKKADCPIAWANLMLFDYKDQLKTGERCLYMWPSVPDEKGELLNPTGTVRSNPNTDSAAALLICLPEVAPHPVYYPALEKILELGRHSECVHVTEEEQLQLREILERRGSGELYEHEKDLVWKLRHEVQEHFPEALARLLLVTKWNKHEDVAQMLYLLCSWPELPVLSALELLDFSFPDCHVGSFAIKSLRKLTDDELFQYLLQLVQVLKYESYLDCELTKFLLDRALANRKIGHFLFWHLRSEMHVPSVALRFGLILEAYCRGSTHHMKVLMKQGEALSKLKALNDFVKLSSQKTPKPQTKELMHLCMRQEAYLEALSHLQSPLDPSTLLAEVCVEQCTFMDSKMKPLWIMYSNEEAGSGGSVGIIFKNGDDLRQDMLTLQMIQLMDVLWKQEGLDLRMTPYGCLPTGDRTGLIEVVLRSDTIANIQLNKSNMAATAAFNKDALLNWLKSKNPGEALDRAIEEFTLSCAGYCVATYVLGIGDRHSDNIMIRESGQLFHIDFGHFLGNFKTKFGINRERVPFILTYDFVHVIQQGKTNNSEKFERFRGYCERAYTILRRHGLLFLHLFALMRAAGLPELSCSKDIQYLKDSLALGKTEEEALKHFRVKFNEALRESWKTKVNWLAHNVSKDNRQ

Row | SMILES | IC50
1 | CC(Nc1ncnc2[nH]cnc12)c1ccc2cccnc2c1-c1cncc(F)c1 (centres undefined) | 500 to 1000 nM
2 | CC(Nc1ncnc2[nH]cnc12)c1cc(Cl)c2cccnc2c1N1CCN(C2CCC2)CC1 (centres undefined) | < 50 nM
3 | CCC(Nc1ncnc2[nH]cnc12)c1cc(Cl)c2ccnnc2c1-c1cccc(F)c1 (centres undefined) | < 50 nM
4 | CC(Nc1ncnc2[nH]cnc12)c1cc(Cl)c2cccnc2c1-c1ccccc1F (centres undefined) | 100 to 250 nM and < 50 nM
5 | CC(Nc1ncnc2[nH]cnc12)c1ccc2cccnc2c1-c1ccccc1F (centres undefined) | 500 to 1000 nM
6 | CC(Nc1ncnc2[nH]cnc12)c1cc(F)c2cccnc2c1N1CCN(C(=O)c2cnn(C)c2)CC1 (centres undefined) | < 50 nM
7 | CC(Nc1ncnc2[nH]cnc12)c1cc(Cl)c2ccncc2c1-c1cccc(F)c1 (centres undefined) | < 50 nM
8 | CC(Nc1ncnc2[nH]cnc12)c1cc(Cl)c2cccnc2c1N1CCC(F)(F)CC1 (centres undefined) | 500 to 1000 nM
9 | CC(Nc1ncnc2[nH]cnc12)c1cc(Cl)c2cccnc2c1N1CCN(C(=O)c2ccccc2F)CC1 (centres undefined) | 250 to 500 nM
10 | CC(Nc1ncnc2[nH]cnc12)c1cc(Cl)c2cccnc2c1N1CCN(C2CC2)CC1 (centres undefined) | < 50 nM
11 | CC(Nc1ncnc2[nH]cnc12)c1cc(Cl)c2ccnnc2c1-c1cc(F)cc(F)c1 (centres undefined) | < 50 nM
12 | CC(Nc1ncnc2[nH]cnc12)c1cc(Cl)c2cccnc2c1N1CCN(C(=O)C2CC2)CC1 (centres undefined) | < 50 nM
13 | CC(C)C(=O)N[C@H]1CCN(c2c(C(C)Nc3ncnc4[nH]cnc34)cc(Cl)c3cccnc23)C1 (some centres undefined) | < 50 nM
14 | CC(Nc1ncnc2[nH]cnc12)c1cc(Cl)c2ccncc2c1N1CC[C@H](F)C1 (some centres undefined) | 250 to 500 nM
15 | CC(Nc1nc(N)nc2[nH]cnc12)c1ccc2ccccc2c1-c1cccc(F)c1 (centres undefined) | 500 to 1000 nM
16 | CC(Nc1ncnc2[nH]cnc12)c1cc(Cl)c2cccnc2c1N1CCC(CCO)CC1 (centres undefined) | 100 to 250 nM
17 | CC(Nc1ncnc2[nH]cnc12)c1cc(Cl)c2cccnc2c1N1CCC(C#N)C1 (centres undefined) | 100 to 250 nM
18 | CC(Nc1ncnc2[nH]cnc12)c1cc(Cl)c2cccnc2c1N1CCN(CCO)CC1 (centres undefined) | < 50 nM
19 | CC(Nc1ncnc2[nH]cnc12)c1cc(Cl)c2cccnc2c1N1CCC(CO)CC1 (centres undefined) | 100 to 250 nM
20 | CC(Nc1nc(N)nc2[nH]cnc12)c1ccc2ccccc2c1-c1cncc(F)c1 (centres undefined) | < 50 nM
21 | CC(Nc1ncnc2[nH]cnc12)c1cc(Cl)c2cccnc2c1N1CCC(N2CCCCC2)CC1 (centres undefined) | 50 to 100 nM
22 | CC(Nc1ncnc2[nH]cnc12)c1cc(Cl)c2ccnnc2c1-c1ccccc1F (centres undefined) | < 50 nM and 50 to 100 nM and 250 to 500 nM
23 | CC(Nc1ncnc2[nH]cnc12)c1cc(Cl)c2cccnc2c1N1CCN(C(=O)c2cccnc2)CC1 (centres undefined) | < 50 nM

Row | SMILES | IC50
24 | CC(Nc1ncnc2[nH]cnc12)c1cc(Cl)c2cccnc2c1N1CCN(C(=O)c2ccccn2)CC1 (centres undefined) | < 50 nM
25 | CC(Nc1ncnc2[nH]cnc12)c1cc(F)c2ccnnc2c1-c1cc(F)cc(F)c1 (centres undefined) | 100 to 250 nM
26 | CC(Nc1ncnc2[nH]cnc12)c1cc(Cl)c2ccnnc2c1-c1ccnc(F)c1 (centres undefined) | 500 to 1000 nM
27 | Cc1nc(C(C)Nc2ncnc3[nH]cnc23)c(-c2cccc(F)c2)c2ccccc12 (centres undefined) | 100 to 250 nM
28 | COCCN1CCN(c2c(C(C)Nc3ncnc4[nH]cnc34)cc(Cl)c3cccnc23)CC1 (centres undefined) | < 50 nM
29 | CC(Nc1ncnc2[nH]cnc12)c1cc(F)c2cccnc2c1N1CCN(C2CCC2)CC1 (centres undefined) | < 50 nM
30 | CC(Nc1nc(N)nc2[nH]cnc12)c1cc(F)c2ccnnc2c1-c1cccc(F)c1 (centres undefined) | < 50 nM
31 | CC(Nc1ncnc2[nH]cnc12)c1cc(Cl)c2cccnc2c1N1CCC(F)CC1 (centres undefined) | 100 to 250 nM
32 | CC(Nc1ncnc2[nH]cnc12)c1cc(Cl)c2conc2c1-c1cccc(F)c1 (centres undefined) | < 50 nM
33 | CC(Nc1ncnc2[nH]cnc12)c1cc(F)c2ccnnc2c1-c1cccc(F)c1 (centres undefined) | 100 to 250 nM and < 50 nM
34 | CC(Nc1ncnc2[nH]cnc12)c1cc(Cl)c2cccnc2c1-c1cccc(F)c1 (centres undefined) | < 50 nM
35 | CC(Nc1ncnc2[nH]cnc12)c1cc(Cl)c2ccccc2c1N1CCC(O)CC1 (centres undefined) | < 50 nM
36 | CC(Nc1ncnc2[nH]cnc12)c1nc(C#N)c2ccccc2c1-c1cccc(F)c1 (centres undefined) | 50 to 100 nM
37 | CC(Nc1ncnc2[nH]cnc12)c1cc(Cl)c2cccnc2c1N1CCN(C(=O)c2cccc(F)c2)CC1 (centres undefined) | 100 to 250 nM
38 | Cc1noc(C)c1C(=O)N1CCN(c2c(C(C)Nc3ncnc4[nH]cnc34)cc(Cl)c3cccnc23)CC1 (centres undefined) | < 50 nM
39 | COC(=O)N[C@H]1CCN(c2c(C(C)Nc3ncnc4[nH]cnc34)cc(Cl)c3cccnc23)C1 (some centres undefined) | 50 to 100 nM and < 50 nM
40 | CC(=O)N[C@H]1CCN(c2c(C(C)Nc3ncnc4[nH]cnc34)cc(Cl)c3cccnc23)C1 (some centres undefined) | < 50 nM
41 | CC(Nc1ncnc2[nH]cnc12)c1cc(Cl)c2cccnc2c1N1CCC(C#N)CC1 (centres undefined) | 100 to 250 nM
42 | COC[C@H]1CCCN1c1c(C(C)Nc2ncnc3[nH]cnc23)cc(Cl)c2cccnc12 (some centres undefined) | 100 to 250 nM
43 | C[C@@H](Nc1ncnc2[nH]cnc12)c1cc(F)c2cccnc2c1-c1cccc(F)c1 | < 50 nM
44 | Cc1cc(C(C)Nc2ncnc3[nH]cnc23)c(-c2cccc(F)c2)c2nnccc12 (centres undefined) | < 50 nM and 500 to 1000 nM
45 | COC1CCN(c2c(C(C)Nc3ncnc4[nH]cnc34)cc(Cl)c3cccnc23)CC1 (centres undefined) | 50 to 100 nM
46 | CC(Nc1ncnc2[nH]cnc12)c1cc(Cl)c2ccnnc2c1-c1cncc(F)c1 (centres undefined) | 50 to 100 nM

Row | SMILES | IC50
47 | CC(Nc1ncnc2[nH]cnc12)c1cc(Cl)c2cccnc2c1N1CCN(C2CCCCC2)CC1 (centres undefined) | 50 to 100 nM
48 | CC(Nc1ncnc2[nH]cnc12)c1cc(Cl)c2cccnc2c1N1CCN(Cc2ccncc2)CC1 (centres undefined) | < 50 nM
49 | COC1CCCN(c2c(C(C)Nc3ncnc4[nH]cnc34)cc(Cl)c3cccnc23)C1 (centres undefined) | 250 to 500 nM and 100 to 250 nM
50 | CC(Nc1ncnc2[nH]cnc12)c1ccc2cccnc2c1-c1cc(F)cc(F)c1 (centres undefined) | 500 to 1000 nM
51 | CC(Nc1ncnc2[nH]cnc12)c1cc(Cl)c2cccnc2c1N1CCN(CC(=O)N(C)C)CC1 (centres undefined) | < 50 nM
52 | CC(Nc1ncnc2[nH]cnc12)c1cc(Cl)c2cn[nH]c2c1-c1cc(F)cc(F)c1 (centres undefined) | < 50 nM
53 | CC(Nc1ncnc2[nH]cnc12)c1cc(Cl)c2cn[nH]c2c1-c1cccc(F)c1 (centres undefined) | < 50 nM
54 | CC(Nc1ncnc2[nH]cnc12)c1ccc2ccccc2c1-c1cccc(F)c1 (centres undefined) | 100 to 250 nM
55 | CC(Nc1ncnc2[nH]cnc12)c1cc(Cl)c2cccnc2c1N1CCC(O)CC1 (centres undefined) | < 50 nM
56 | CC(Nc1ncnc2[nH]cnc12)c1cc(Cl)c2cccnc2c1N1CC[C@H](NS(C)(=O)=O)C1 (some centres undefined) | 250 to 500 nM and < 50 nM
57 | CC(Nc1ncnc2[nH]cnc12)c1cc(Cl)c2cccnc2c1N1CCN(C(=O)c2cnccn2)CC1 (centres undefined) | < 50 nM
58 | CC(Nc1ncnc2[nH]cnc12)c1cc(Cl)c2cccnc2c1N1CCCC(CO)C1 (centres undefined) | 100 to 250 nM
59 | CC(Nc1ncnc2[nH]cnc12)c1cc(Cl)c2ccccc2c1-c1cccc(F)c1 (centres undefined) | 100 to 250 nM
60 | CC(Nc1ncnc2[nH]cnc12)c1cc(Cl)c2cccnc2c1N1CCC[C@H](O)C1 (some centres undefined) | < 50 nM
61 | Fc1cccc(-c2c(CNc3ncnc4[nH]cnc34)cc(Cl)c3ccnnc23)c1 | 500 to 1000 nM
62 | CC(Nc1ncnc2[nH]cnc12)c1cc(Cl)c2cccnc2c1N1CCN(C(=O)C2CCC2)CC1 (centres undefined) | < 50 nM
63 | Cc1cc(C(C)Nc2ncnc3[nH]cnc23)c(-c2cc(F)cc(F)c2)c2nnccc12 (centres undefined) | < 50 nM
64 | CCc1cc(C(C)Nc2ncnc3[nH]cnc23)c(-c2cccc(F)c2)c2ncccc12 (centres undefined) | 50 to 100 nM
65 | CC(Nc1ncnc2[nH]cnc12)c1cc(Cl)c2cccnc2c1N1CCN(C(=O)c2ccc(F)cc2)CC1 (centres undefined) | 100 to 250 nM
66 | CC(Nc1ncnc2[nH]cnc12)c1cc(C#N)c2cccnc2c1-c1cccc(F)c1 (centres undefined) | 50 to 100 nM
67 | CC(=O)N1CCC(C(=O)N2CCN(c3c(C(C)Nc4ncnc5[nH]cnc45)cc(Cl)c4cccnc34)CC2)CC1 (centres undefined) | < 50 nM
68 | COC(=O)NC1CCN(c2c(C(C)Nc3ncnc4[nH]cnc34)cc(Cl)c3cccnc23)CC1 (centres undefined) | < 50 nM
69 | C[C@H](Nc1ncnc2[nH]cnc12)c1cc(F)c2cccnc2c1-c1cccc(F)c1 | < 50 nM

Row | SMILES | IC50
70 | CC(Nc1ncnc2[nH]cnc12)c1cc(F)c2cccnc2c1N1CC[C@@H](O)C1 (some centres undefined) | 100 to 250 nM
71 | COc1ccc(-c2c(C(C)Nc3ncnc4[nH]cnc34)cc(Cl)c3ccnnc23)cc1F (centres undefined) | 500 to 1000 nM
72 | CC(Nc1ncnc2[nH]cnc12)c1cc(Cl)c2cnn(C)c2c1-c1cc(F)cc(F)c1 (centres undefined) | < 50 nM
73 | COC1CCN(c2c(C(C)Nc3ncnc4[nH]cnc34)cc(Cl)c3cccnc23)C1 (centres undefined) | < 50 nM and 50 to 100 nM
74 | Cc1cc(C(C)Nc2ncnc3[nH]cnc23)c(-c2cccc(F)c2)c2ncccc12 (centres undefined) | 100 to 250 nM
75 | COCC(=O)N1CCN(c2c(C(C)Nc3ncnc4[nH]cnc34)cc(Cl)c3cccnc23)CC1 (centres undefined) | < 50 nM
76 | COC(=O)N1CCN(c2c(C(C)Nc3ncnc4[nH]cnc34)cc(Cl)c3cccnc23)CC1 (centres undefined) | < 50 nM
77 | CC(Nc1ncnc2[nH]cnc12)c1cc(Cl)c2cccnc2c1N1CCC(c2ccccc2)C1 (centres undefined) | 250 to 500 nM
78 | CC(Nc1ncnc2[nH]cnc12)c1cc(Cl)c2cccnc2c1N1CCN(C(=O)N(C)C)CC1 (centres undefined) | < 50 nM
79 | CC(Nc1ncnc2[nH]cnc12)c1cc(Cl)c2cccnc2c1N1CCCC(F)C1 (centres undefined) | 250 to 500 nM
80 | CC(Nc1ncnc2[nH]cnc12)c1cc(Cl)c2cccnc2c1N1CCC(NS(C)(=O)=O)CC1 (centres undefined) | 100 to 250 nM
81 | Cc1cc(C(=O)N2CCN(c3c(C(C)Nc4ncnc5[nH]cnc45)cc(Cl)c4cccnc34)CC2)no1 (centres undefined) | < 50 nM
82 | CC(Nc1ncnc2[nH]cnc12)c1cc(Cl)c2cccnc2c1N1CCN(C(=O)c2ccccc2)CC1 (centres undefined) | 50 to 100 nM
83 | CCC(=O)N[C@H]1CCN(c2c(C(C)Nc3ncnc4[nH]cnc34)cc(Cl)c3cccnc23)C1 (some centres undefined) | < 50 nM
84 | CC(Nc1ncnc2[nH]cnc12)c1ccc2ccccc2c1-c1cncc(F)c1 (centres undefined) | < 50 nM
85 | CC(Nc1ncnc2[nH]cnc12)c1cc(Cl)c2cccnc2c1N1CCN(C(=O)c2ccn(C)n2)CC1 (centres undefined) | < 50 nM
86 | CC(=O)NC1CCN(c2c(C(C)Nc3ncnc4[nH]cnc34)cc(Cl)c3cccnc23)CC1 (centres undefined) | < 50 nM
87 | CC(Nc1ncnc2[nH]cnc12)c1cc(Cl)c2cccnc2c1N1CCN(C(=O)c2ccncc2)CC1 (centres undefined) | < 50 nM
88 | CC(Nc1ncnc2[nH]cnc12)c1cc(Cl)c2cccnc2c1N1CC[C@@H](O)C1 (some centres undefined) | < 50 nM
89 | CC(Nc1ncnc2[nH]cnc12)c1ccc2cccnc2c1-c1cccc(F)c1 (centres undefined) | 250 to 500 nM
